Experimental findings from patent US20250051762A1, “PLATFORM USING DNA-ENCODED SMALL MOLECULE LIBRARIES AND RNA SELECTION TO DESIGN SMALL MOLECULES THAT TARGET RNA” (University of Florida Research Foundation, Incorporated, priority 2021, published 2025) are described below.

Assay [1] relates to mutant pri-miR-27a. The assay can be described thus: Competitive MST binding assay with unlabeled mutated pri-miR-27a. Details: species or system human. The conditions noted are these: two 5′GAG/3′CCC loops mutated to base pairs. The method, then:
To measure the affinity of 9 for the 5′GAG/3′CCC loop in the context of pri-miR-27a, a competitive binding assay was used with a constant concentration of compound (100 nM) and the Cy5-labeled model of pri-miR-27a's Drosha site, and varying concentrations of unlabeled miR-27a precursor as reported by miRBase. (35) That is, the miR-27a precursor competes with the Cy5-labeled model of pri-miR-27a's Drosha site for binding 9. […] Thus, the compounds identified by using DEL-2DCS can bind avidly to biologically relevant RNA targets identified by Inforna.
For competitive binding assays, both WT and mutant pri-miR-27a RNAs were transcribed as previously described (see Table S6 for sequences). (11) The RNA was purified by gel electrophoresis and folded in 1× Binding Buffer at final concentration of 750 nM by heating at 60° C. for 5 min and then slowly cooling to room temperature. […] The resulting data were analyzed by SigmaPlot and fitted by Equation 2 to yield the competitive dissociation constant (Kd competitive).
where F is the concentration of fluorescence-labeled RNA; unbound and bound refers to the thermophoresis signal at completely unbound and bound state of RNA, respectively; c is the concentration of the compound; f (c) is the thermophoresis signal at compound concentration of c; Kd is the dissociation constant. […]

Assay [2] deals with mutant pri-miR-27a. The assay can be described thus: RT-qPCR of miR-27a biogenesis in MCF-10a cells transfected with mutant pri-miR-27a. Type of assay: cell-based, human. The conditions noted are these: mutant plasmid, 48 h. The text has this:
To gauge the specificity of 9 for pri-miR-27a, inhibition of biogenesis was first studied in a cellular model of healthy breast epithelium, MCF-10a, in which miR-27a expression is not detectable (Ct>31). MCF-10a cells were transfected with a plasmid encoding WT pri-miR-27a or mutant in which the two 5′GAG/3′CCC internal loops at and nearby the Drosha processing site were mutated to base pairs. In the absence of compound treatment, both primary miRNA transcripts were processed similarly, generating mature miR-27a, as determined by RT-qPCR.
Cell lines. Compounds were tested in MDA-MB-231 TNBC cells (HTB-26, ATCC), LNCaP metastatic prostate cancer cells (gifted from Junli Luo lab), MCF-7 (HTB-22, ATCC) breast cancer cells, HeLa cervical adenocarcinoma cells (CCL-2, ATCC), and MCF-10a, a model of healthy breast epithelial cells (CRL-10317, ATCC).
Cell culture and compound treatment. All cells were maintained at 37° C. with 5% CO2. […]
Analysis of mRNA abundance: Each cell line was grown as a monolayer in 12- or 24-well plates and treated as described in “Cell culture and compound treatment”. […] Relative abundance of mature miRNAs was calculated by normalizing to RNU6, and relative abundance for pri-miRNAs and mRNAs was calculated by normalizing to 18S ribosomal RNA, using the AAC, method. […]

Consider `C#CCN(CC(N)=O)C(=O)C[C@H](Cc1c[nH]c2ccccc12)NC(=O)[C@@H]1C[C@H](NC(=O)Cn2c(=O)[nH]c3ccccc3c2=O)CN1` [Compound 9], for which the “binding (competitive)” value in the assay with mutant pri-miR-27a [1] is on record as “binding was abolished”. Moreover, the “inhibition of biogenesis of mutated pri-miR-27a” value in the assay on mutant pri-miR-27a [2] is listed as “did not inhibit biogenesis”.
